Results taken from article PMC12655351, “Synthesis and Anticancer Activity Evaluation of New 5-((5-Nitrofuran-2-yl)allylidene)-2-thioxo-4-thiazolidinones” (Pharmaceuticals, 2025).
Values joined by “and” are separate entries in the source; they are usually repeats but may differ in a detail not shown here. Identical values can stand only once. Like-named read-outs stand apart in the source and are kept apart here.

Assays:
Prostate Cancer = experiment: cells; conditions: Homo sapiens, read-out: MG_MID GI50
BT-549 = conditions: BT-549, 10 μM, 48 h
OVCAR-8 = experiment: cells; conditions: Homo sapiens, OVCAR-8, 48 h
[1] = tested on: Non-small cell lung cancer; conditions: Non-small cell lung cancer subpanel
MALME-3M = experiment: NCI-60 SRB screen; conditions: 48 h
A498 = experiment: cells; conditions: Homo sapiens, A498, 48 h
HCT-116 = experiment: cells; conditions: Homo sapiens, HCT-116, 48 h
UACC-257 [2] = experiment: cells; conditions: Homo sapiens, UACC-257, 48 h, read-out: LC50, UACC-257, 48 h
SK-MEL-5 [3] = tested on: SK-MEL-5
UACC-257 [4] = tested on: UACC-257
Breast cancer = Breast cancer subpanel
PC-3 = conditions: PC-3, 48 h
HS 578T = experiment: cells; conditions: Homo sapiens, 48 h, read-out: LC50
HT29 [5] = conditions: HT29, 48 h
HT29 [6] = experiment: cells; conditions: Homo sapiens, HT-29, 48 h
HCT-15 = experiment: NCI-60 SRB screen; conditions: HCT-15, 48 h
NCI-H322M = experiment: NCI-60 SRB screen; conditions: 48 h
LOX IMVI = conditions: 48 h
SN12C = conditions: SN12C, 48 h
Renal Cancer = Renal Cancer subpanel
SK-MEL-5 [7] = experiment: cells; conditions: Homo sapiens, SK-MEL-5, 48 h
[8] = tested on: panel of 60 cancer cell lines; experiment: cells; conditions: Homo sapiens, read-out: MG_MID GI50
NCI-H460 = experiment: NCI-60 SRB screen; conditions: NCI-H460, 48 h
ACHN = experiment: NCI-60 SRB screen; conditions: 48 h

## O=C(O)CCCN1C(=O)/C(=C/C=C/c2ccc([N+](=O)[O-])o2)SC1=S [13b, 4-((Z)-5-((E)-3-(5-Nitrofuran-2-yl)allylidene)-4-oxo-2-thioxothiazolidin-3-yl)butanoic acid]
Prostate Cancer
  GI50: 820 nM
BT-549
  growth GP: -98.54%
OVCAR-8
  GI50: 460 nM
[1]
  MG_MID TGI: 4480 nM
MALME-3M; Homo sapiens, Malme-3M
  GI50: 240 nM
MALME-3M; MALME-3M
  GI50: 150 nM
  TGI: 600 nM and 350 nM
A498
  GI50: 4130 nM
HCT-116
  GI50: 310 nM
UACC-257 [2]
  CC50: 6360 nM
SK-MEL-5 [3]; SK-MEL-5, 10 μM, 48 h
  growth GP: -98.67%
SK-MEL-5 [3]; SK-MEL-5, 48 h
  GI50: 1210 nM
  TGI: 1970 nM and 2680 nM
SK-MEL-5 [3]; human, 48 h
  CC50: 5960 nM
UACC-257 [4]; UACC-257, 48 h
  TGI: 3150 nM and 1730 nM
UACC-257 [4]; human, 48 h
  CC50: 4660 nM
Breast cancer
  MG_MID TGI: 2150 nM
PC-3
  GI50: 400 nM
  TGI: 3100 nM and 2020 nM
HS 578T
  CC50: > 100000 nM
HT29 [5]
  GI50: 260 nM
HT29 [6]; HT29, 48 h
  GI50: 450 nM
HT29 [6]; read-out: LC50, HT29, 48 h
  CC50: 5440 nM
HCT-15
  GI50: 110 nM
  TGI: 520 nM and 330 nM
HCT-15; Homo sapiens
  GI50: 180 nM
NCI-H322M
  GI50: 1970 nM
  TGI: 8090 nM and 5500 nM
NCI-H322M; Homo sapiens
  GI50: 2520 nM
NCI-H322M; Homo sapiens, read-out: LC50, NCI-H322M, 48 h
  CC50: 28300 nM
LOX IMVI; LOX IMVI, 10 μM
  growth GP: -96.12%
LOX IMVI; LOX IMVI
  TGI: 420 nM and 390 nM
LOX IMVI; human
  CC50: 810 nM
SN12C; 10 μM
  growth GP: -96.81%
SN12C
  GI50: 170 nM
Renal Cancer
  MG_MID TGI: 2600 nM
SK-MEL-5 [7]
  GI50: 610 nM
SK-MEL-5 [7]; read-out: LC50, SK-MEL-5, 48 h
  CC50: 4610 nM
[8]
  GI50: 1610 nM
CAKI-1; CAKI-1, 10 μM, 48 h
  growth GP: -96.66%
CAKI-1; CAKI-1, 48 h
  GI50: 770 nM
  TGI: 1970 nM and 2040 nM
NCI-H460; Homo sapiens
  GI50: 630 nM
NCI-H460; Homo sapiens, read-out: LC50
  CC50: 4940 nM
NCI-H460
  GI50: 330 nM
  TGI: 1990 nM and 1390 nM
ACHN; 10 μM
  growth GP: -100.00%
ACHN
  TGI: 2210 nM and 1350 nM
ACHN; Homo sapiens, read-out: LC50, ACHN, 48 h
  CC50: 4700 nM
